Values quoted from earlier work as cited in patent US8747385B2, “Methods and compositions to treat myocardial conditions” (Abbott Cardiovascular Systems Inc., priority 2003, dated 2014).

Compound | O2 solubility at 37° C. [V %]
FC(F)(F)C(F)(F)C(F)(F)C(F)(F)CCC(F)(F)C(F)(F)C(F)(F)C(F)(F)F [F-44E, 1,2-bis(perfluorobutyl)ethane] | 50
FC1(F)C(F)(F)C(F)(F)C2(F)C(F)(F)C(F)(F)C(F)(F)C(F)(F)C2(F)C1(F)F (centres unmarked) [FDC, Perfluorodecalin] | 45
